Several values for one entry are separate records, joined by “and”; a condition that tells them apart may be missing. Equal entries are not always repeated. Entries after “also recorded” stand apart in the source; their conditions may differ.
How the values were obtained:
[1] = test system: surface-expressing mutant TRPML1 channels (TRPML1^4A); assay: Whole-cell recordings of ITRPML1-4A; format: cell-based; conditions: TRPML1-4A wc; 100µM; individual cells
[2] = molecular target: T1, PI(3,5)P2-insensitive mutant TPC2 channel (K204A) (Homo sapiens, UniProt Q8NHX9, K204A); assay: Whole-endolysosome recordings of ITPC2-K204A; format: biochemical; conditions: for Normalized I-TPC2: TPC2-K204A
T1 construct: expressed in transfected cells; host or cells: HEK293
T1 sequence (Q8NHX9 whole entry K204A): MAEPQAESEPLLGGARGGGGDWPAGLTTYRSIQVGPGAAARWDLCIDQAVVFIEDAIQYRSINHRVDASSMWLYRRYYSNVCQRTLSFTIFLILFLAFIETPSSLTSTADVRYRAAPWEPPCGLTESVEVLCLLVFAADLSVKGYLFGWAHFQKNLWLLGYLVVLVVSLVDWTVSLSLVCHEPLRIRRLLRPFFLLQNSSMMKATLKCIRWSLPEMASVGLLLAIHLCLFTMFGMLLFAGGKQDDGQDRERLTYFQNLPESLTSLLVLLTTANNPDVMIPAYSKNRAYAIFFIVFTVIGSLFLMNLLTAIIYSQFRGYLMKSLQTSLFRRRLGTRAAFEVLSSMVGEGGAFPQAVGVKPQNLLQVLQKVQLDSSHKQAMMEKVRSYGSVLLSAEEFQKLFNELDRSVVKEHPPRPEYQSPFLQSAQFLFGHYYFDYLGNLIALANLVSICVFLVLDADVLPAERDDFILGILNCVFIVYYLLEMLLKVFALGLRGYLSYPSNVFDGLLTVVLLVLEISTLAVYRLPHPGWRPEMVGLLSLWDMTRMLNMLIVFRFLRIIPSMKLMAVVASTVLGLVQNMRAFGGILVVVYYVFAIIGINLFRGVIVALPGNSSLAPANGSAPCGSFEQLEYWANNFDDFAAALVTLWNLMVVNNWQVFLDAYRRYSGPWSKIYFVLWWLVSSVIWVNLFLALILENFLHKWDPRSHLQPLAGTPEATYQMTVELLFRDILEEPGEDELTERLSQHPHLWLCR
Text: PI(3,5)P2 reportedly binds to Lys204 and adjacent AA residues to activate TPC2 ([She et al., 2019]). […] Lysosomal PI(3,5)P2 may play a permissive role in TPC activation in intact cells ([Ruas et al., 2015]).
(§1) Data are presented as Mean ± S.E.M (n = 3 patches). […] For panels B, D and F, individual data and Mean ± S.E.M are presented. *, p<0.05; **, p<0.01; ***, p<0.001; N.S., no significance. Figure 3—source data 1. […] Figure 3—figure supplement 1. […] Both individual data points and Mean ± S.E.M are presented (n ≥ 3 patches; also see individual data in Figure 3—figure supplement 1—source data 1). Figure 3—figure supplement 1—source data 1.
All TPC1 and TPC2 mutants were generated with a site-directed mutagenesis kit (Qiagen) using EGFP- human TPC1 and TPC2 as the templates. All constructs were confirmed by DNA sequencing.
(§2) Whole-endolysosome recordings were performed on manually isolated enlarged endolysosomes ([Wang et al., 2012]). In brief, a patch pipette was pressed against a cell and quickly pulled away to slice the cell membrane. Enlarged endolysosomes were released into a dish and identified by monitoring EGFP-TPC1/2 or the mCherry-TPC1/2 fluorescence. After formation of a gigaseal between the patch pipette and the enlarged endolysosome, capacitance transients were compensated. Voltage steps of several hundred mVs with millisecond duration were then applied to break into the vacuolar membrane. The whole-endolysosome configuration was verified by the re-appearance of capacitance transients after break-in.
(§3) Data were collected using an Axopatch 200A patch clamp amplifier, Digidata 1440, and pClamp 10.2 software (Axon Instruments). Whole-endolysosome currents were digitized at 10 kHz and filtered at 2 kHz. All experiments were conducted at room temperature (21–23°C), and all recordings were analyzed with pClamp 10.2, and Origin 8.0 (OriginLab, Northampton, MA). The permeability to cations (relative to PNa) was estimated based on following equations ([Lewis, 1979]) and Erev measurement under bi-ionic conditions:(1) PX/PNa=γNa/γX{[Na^+]Luminal/[X^+]Cytoplasmic}{exp([…])} (2) PCa/PNa=γNa/γCa{[Na^+]Cytoplasmic/[4[Ca^2+]Luminal}{exp(ErevF/RT)}{1+exp(ErevF/RT)} where R, T, F, Erev, and γ are, respectively, the gas constant, absolute temperature, Faraday constant, reversal potential, and activity coefficient. The liquid junction potentials were measured and corrected as described ([Neher, 1992]).

[3] = test system: endogenous TPCs in WT HAP1 cells; assay: Whole-endolysosome recordings of endogenous ITPC in WT HAP1 cells; format: biochemical, human; conditions: for whole-endolysome ITPC current: wt HAP1, LyNa-VA1.1 (50 µM) co-applied with PI(3,5)P2 (0.3 µM)
[4] = test system: TPC1/2 DKO HAP1 cells; assay: Whole-endolysosome recordings in TPC1/2 DKO HAP1 cells; format: biochemical, human; conditions: for whole-endolysome ITPC current: dko HAP1, LyNa-VA1.1 (50 µM) co-applied with PI(3,5)P2 (0.3 µM)
Text: TCAs, with a general structure of an aromatic greasy core and an aliphatic chain containing a terminal amine, are lysosomotropic compounds that are known to be highly accumulating in the lysosomes due to proton trapping ([Beckmann et al., 2014]). We next tested the effects of LyNa-VAs in hTPC2-transfected Cos1 and HEK293 cells using whole-endolyosome patch-clamp.
as §1
TPC1 and TPC2 CRISPR KO cells were generated in HAP1 cells using the CRISPR/Cas9 system. The TPC1 sequence (5'cttgcagtacttcagcaccc3', TPC1-sgRNA) and TPC2 sequence (5'ccccagcgtcgggctgctgc3', TPC2-sgRNA) were targeted with pSpCas9 (BB)−2A-puro vector (Addgene). HAP1 cells were co-transfected with TPC1 and TPC2-sgRNA expressing vector in the presence of Lipofectamine 2000 (In vitrogen) and selected with 2 μg/ml puromycin for 48 hr. The remaining cells were trypsinized and seeded into 96-well plate after a limiting dilution. When single cell clones were established, their genomic DNAs were extracted and amplified with following primers: TPC1-fw: 5’atggcccagacatgtgactc3’, TPC1-re: 5’ tgcctgtctccatcctctca3’; TPC2-fw: 5’tgagctgagcatgaggcaag3’, TPC2-re: 5’ aaaggacaagtggccctgag3’. The PCR amplicons were then sequenced to confirm the intended genetic disruption.
as §2
as §3, with “coefficient.” for “coefficient. The liquid junction potentials were measured and corrected as described ([Neher, 1992]).”

[5] = test system: T2, hTPC1^R540I; assay: Whole-endolysosome recordings of ITPC1-R540I; format: biochemical, human
T2 construct: expressed in transfected cells; host or cells: Cos1

[6] = test system: T3, TRPML1; assay: Whole-endolysosome recordings of ITRPML1; format: biochemical; conditions: TRPML1-transfected cells
T3 construct: expressed in transfected cells

[7] = test system: T4, TPC2^K204A in HEK293 cells; assay: Whole-cell recordings of ITPC2-K204A; format: cell-based, human; conditions: TPC2^K204A-transfected HEK293 cells
T4 construct: expressed in transfected cells; host or cells: HEK293

[8] = test system: T5, TPC2 I551R; assay: Whole-endolysosome recordings of ITPC2-I551R; format: biochemical, human
T5 construct: expressed in transfected cells

CN(C)CCCN1c2ccccc2CCc2ccc(Cl)cc21 [LyNa-VA1.1, Clomipramine]
current, whole-cell ITRPML1-4A [1]: 28.1 pA and 29.7 pA and 114.4 pA and 172.7 pA
EC50 ([2]; K204A +PI(3,5)P2 (50 nM), whole-endolysosome, Figure 3C): 47 ± 5 µM
EC50 ([2]; K204A -PI(3,5)P2, whole-endolysosome, Figure 3C): 56 ± 3 µM
EC50 ([2]; K204A -pip2, MEAN (Fig. 3D)): 59.7 µM
EC50 ([2]; K204A -pip2, individual patches (Fig. 3D)): 56.4 µM and 68.2 µM and 54.5 µM
EC50 ([2]; K204A+pip2 (50 nM), MEAN (Fig. 3D)): 48.7 µM
EC50 ([2]; K204A+pip2 (50 nM), individual patches (Fig. 3D)): 45.5 µM and 56.2 µM and 44.4 µM
Normalized I-TPC2 ([2]; 1 µM + PI(3,5)P2 50nM, individual patches): 0.01018 and 0.1053 and 0.1347
Normalized I-TPC2 ([2]; 1 µM + PI(3,5)P2 50nM, mean): 0.08342
Normalized I-TPC2 ([2]; 3 µM + PI(3,5)P2 50nM, individual patches): -0.08987 and 0.1073 and 0.2183
Normalized I-TPC2 ([2]; 3 µM + PI(3,5)P2 50nM, mean): 0.07858
Normalized I-TPC2 ([2]; 10 µM + PI(3,5)P2 50nM, individual patches): -0.1017 and 0.1767 and 0.2594
Normalized I-TPC2 ([2]; 10 µM + PI(3,5)P2 50nM, mean): 0.1115
Normalized I-TPC2 ([2]; 10 µM, no PI(3,5)P2, individual patches): 0.02985 and 0.03877 and 0.00366
Normalized I-TPC2 ([2]; 10 µM, no PI(3,5)P2, mean): 0.02409
Normalized I-TPC2 ([2]; 20 µM, no PI(3,5)P2, individual patches): 0.03731 and 0.1741 and 0.01903
Normalized I-TPC2 ([2]; 20 µM, no PI(3,5)P2, mean): 0.07682
Normalized I-TPC2 ([2]; 30 µM + PI(3,5)P2 50nM, individual patches): 0.119 and 0.2972 and 0.3327
Normalized I-TPC2 ([2]; 30 µM + PI(3,5)P2 50nM, mean): 0.2496
Normalized I-TPC2 ([2]; 50 µM, no PI(3,5)P2, individual patches): 0.2736 and 0.4263 and 0.3898
Normalized I-TPC2 ([2]; 50 µM, no PI(3,5)P2, mean): 0.3632
Normalized I-TPC2 ([2]; 100 µM + PI(3,5)P2 50nM, individual patches): 0.8468 and 1 (2×)
Normalized I-TPC2 ([2]; 100 µM + PI(3,5)P2 50nM, mean): 0.9489
Normalized I-TPC2 ([2]; 100 µM, no PI(3,5)P2, individual patches): 0.8657 and 1 and 0.7921
Normalized I-TPC2 ([2]; 100 µM, no PI(3,5)P2, mean): 0.8859
Normalized I-TPC2 ([2]; 200 µM + PI(3,5)P2 50nM, individual patches): 1 and 0.5762 and 0.9144
Normalized I-TPC2 ([2]; 200 µM + PI(3,5)P2 50nM, mean): 0.8302
Normalized I-TPC2 ([2]; 200 µM, no PI(3,5)P2, individual patches): 1 (2×) and 0.8492
Normalized I-TPC2 ([2]; 200 µM, no PI(3,5)P2, mean): 0.9497
activation of whole-endolysosome ITPC in WT HAP1 cells (in words) [3]: activated whole-endolysome ITPC in WT
whole-endolysome ITPC current ([3]; individual): 252.1 pA and 207.1 pA and 321.7 pA and 271.3 pA
whole-endolysome ITPC current ([3]; mean): 263.05 pA
activation of whole-endolysosome ITPC in TPC1/2 DKO HAP1 cells (in words) [4]: not TPC1/2 DKO
whole-endolysome ITPC current ([4]; individual): 15.3 pA and 12.5 pA and 24.7 pA and 10.4 pA
whole-endolysome ITPC current ([4]; mean): 15.725 pA
effect on ITPC1-R540I (in words) [5]: dramatic enhancement of inward currents at negative potentials

Nc1nc2ccc(OC(F)(F)F)cc2s1 [LyNA1, Riluzole]
activation of whole-endolysosome ITPC2-K204A (in words) [2]: robustly activated whole-endolysosome ITPC2
activation of whole-endolysosome ITRPML1 (in words) [6]: no current activation; also recorded: lack of the activation effects
activation of whole-endolysosome ITPC in WT HAP1 cells (in words) [3]: activated whole-endolysosome ITPC in WT HAP1 cells
activation of whole-endolysosome ITPC in TPC1/2 DKO HAP1 cells (in words) [4]: not HAP1 cells lacking TPC1 or TPC2; also recorded: not TPC1/2 double KO HAP1 cells
activation of whole-cell ITPC2-K204A (in words) [7]: activated

CNCCCN1c2ccccc2CCc2ccccc21 [LyNa-VA1.2, Desipramine]
activation of ITPC2-I551R (in words) [8]: failed to affect LyNa-VA1.2 activation
activation of whole-cell ITPC2-K204A (in words) [7]: activated
